Biological target: T1, human PDE9A2 (Homo sapiens, UniProt O76083)
T1 construct: made in house; host or cells: Sf9 insect cells (infected); crude lysate used as enzyme source
Experiment: PDE9A2 enzymatic activity assay (scintillation proximity assay, SPA)
Format: biochemical
Conditions: for inhibition at 10 µM: read-out: % inhibition of PDE9A2 (at 10 micromolar concentration), 10 micromolar concentration, values above 100% adjusted to 100%; for IC50: reported only as range 1-100 or 101-1200 nanomolar, specific value lies within range, read-out: IC50 within range [nanomolar (nM)]

T1 sequence (O76083 1-533 isoform O76083-2): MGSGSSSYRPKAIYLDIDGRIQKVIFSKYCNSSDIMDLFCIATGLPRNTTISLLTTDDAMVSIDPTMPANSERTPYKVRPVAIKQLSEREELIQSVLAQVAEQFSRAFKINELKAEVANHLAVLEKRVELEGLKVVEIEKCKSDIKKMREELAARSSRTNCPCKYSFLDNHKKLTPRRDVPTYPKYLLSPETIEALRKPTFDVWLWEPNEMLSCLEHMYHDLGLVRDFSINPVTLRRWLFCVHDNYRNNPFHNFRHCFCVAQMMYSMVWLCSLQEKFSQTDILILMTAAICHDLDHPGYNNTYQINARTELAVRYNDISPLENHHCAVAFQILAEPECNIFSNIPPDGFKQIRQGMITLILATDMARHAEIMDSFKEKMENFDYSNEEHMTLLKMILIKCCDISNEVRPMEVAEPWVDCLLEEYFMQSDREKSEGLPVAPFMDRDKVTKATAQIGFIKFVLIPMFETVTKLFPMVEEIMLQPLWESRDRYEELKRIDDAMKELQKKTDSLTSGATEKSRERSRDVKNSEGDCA

| Structure (SMILES) | inhibition at 10 µM [%] | IC50 [nM] |
| --- | --- | --- |
| CN1CCCC(n2ncc3c(=O)[nH]c(Cc4ccccc4OC(F)(F)F)nc32)C1 (racemic) [Example 209] | 89 | 101 to 1200 |
| O=c1[nH]c(CC2CCC2)nc2c1cnn2C1CCNC1 (racemic) [Example 201] | 85 | 101 to 1200 |
| O=C(c1ccccc1)N1CCCC(n2ncc3c(=O)[nH]c(Cc4ccccc4OC(F)(F)F)nc32)C1 (racemic) [Example 163] | 97 | 101 to 1200 |
| O=c1[nH]c(CC2CCCC2)nc2c1cnn2C1CCCNC1 (racemic) [Example 196] | 91 | 101 to 1200 |
| CN1CCCC(n2ncc3c(=O)[nH]c(CC4CCC4)nc32)C1 (racemic) [Example 218] | 88 | 101 to 1200 |
| CCC(Cc1nc2c(cnn2C2CCCN(C(=O)OC(C)(C)C)C2)c(=O)[nH]1)C(F)(F)F (racemic) [Example 21] | 97 | 101 to 1200 |
| CC(=O)N1CCCC(n2ncc3c(=O)[nH]c(CC4CCC4)nc32)C1 (racemic) [Example 180] | 96 | 101 to 1200 |
| O=c1[nH]c(Cc2ccccc2OC(F)(F)F)nc2c1cnn2C1CCNC1 (racemic) [Example 200] | 91 | 101 to 1200 |
| O=C(c1ccccc1)N1CCC(n2ncc3c(=O)[nH]c(Cc4ccccc4)nc32)C1 (racemic) [Example 166] | 92 | 101 to 1200 |
| CN1CCCC(n2ncc3c(=O)[nH]c(Cc4ccccc4)nc32)C1 (racemic) [Example 215] | 93 | 101 to 1200 |
| O=c1[nH]c(Cc2cccnc2)nc2c1cnn2C1CCOCC1 [Example 123] | 91 | 101 to 1200 |
| CC(=O)N1CCC(n2ncc3c(=O)[nH]c(CC4CCCC4)nc32)CC1 [Example 151] | 92 | 101 to 1200 |
| CC(=O)N1CCCC(n2ncc3c(=O)[nH]c(CC(C)C)nc32)C1 (racemic) [Example 189] | 90 | 101 to 1200 |
| O=C(c1ccccc1)N1CCC(n2ncc3c(=O)[nH]c(CC4CCC4)nc32)C1 (racemic) [Example 171] | 100 | 101 to 1200 |
| C=Cc1cc(OC)ccc1Cc1nc2c(cnn2C2CCOCC2)c(=O)[nH]1 [Example 230-4] | 98 | 101 to 1200 |
| COc1cccnc1Cc1nc2c(cnn2C2CCOCC2)c(=O)[nH]1 [Example 67] | 95 | 101 to 1200 |
| CN1CCC(n2ncc3c(=O)[nH]c(Cc4ccccc4OC(F)(F)F)nc32)CC1 [Example 150] | 90 | 101 to 1200 |
| CC1(C)CC(n2ncc3c(=O)[nH]c(CC4CCCC4)nc32)CCO1 (racemic) [Example 104] | 95 | 101 to 1200 |

| Structure (SMILES) | inhibition at 10 µM [%] | IC50 [nM] |
| --- | --- | --- |
| O=c1[nH]c(Cc2ccccc2C(F)(F)F)nc2c1cnn2C1CCCCO1 (racemic) [Example 147-1] | 86 | 101 to 1200 |
| CC(C)(C)OC(=O)N1CCC(n2ncc3c(=O)[nH]c(CC4CCC4)nc32)C1 (racemic) [Example 16] | 86 | 101 to 1200 |
| CC(=O)N1CCC(n2ncc3c(=O)[nH]c(Cc4ccccc4OC(F)(F)F)nc32)C1 (racemic) [Example 164] | 98 | 101 to 1200 |
| CC1CC(n2ncc3c(=O)[nH]c(Cc4ccccc4C#N)nc32)CCO1 (racemic) [Example 121] | 94 | 101 to 1200 |
| O=c1[nH]c(Cn2cccn2)nc2c1cnn2C1CCOCC1 [Example 26] | 91 | 101 to 1200 |
| CC(C)Cc1nc2c(cnn2C2CCOC2)c(=O)[nH]1 (single isomer, unassigned) [Example 132-3] | 89 | 101 to 1200 |
| CC1CC(n2ncc3c(=O)[nH]c(Cc4ccccc4C(F)(F)F)nc32)CCO1 (racemic) [Example 113] | 92 | 101 to 1200 |
| CC(C)Cc1nc2c(cnn2C2CCOC(C)(C)C2)c(=O)[nH]1 (racemic) [Example 106] | 87 | 101 to 1200 |
| CC(C)Cc1nc2c(cnn2C2CCOC(C)C2)c(=O)[nH]1 (racemic) [Example 114] | 89 | 101 to 1200 |
| O=C(c1ccccc1)N1CCC(n2ncc3c(=O)[nH]c(Cc4ccccc4OC(F)(F)F)nc32)C1 (racemic) [Example 169] | 86 | 101 to 1200 |
| CCC(CC)Cc1nc2c(cnn2C2CCOC(C)C2)c(=O)[nH]1 (racemic) [Example 119] | 95 | 1 to 100 |
| N#Cc1cccc(Cc2nc3c(cnn3C3CCOC3)c(=O)[nH]2)c1 (racemic) [Example 89] | 95 | 101 to 1200 |
| CC1CC(n2ncc3c(=O)[nH]c(Cc4ccccn4)nc32)CCO1 (racemic) [Example 111] | 88 | 101 to 1200 |
| CCC(CC)Cc1nc2c(cnn2C2CCCOC2)c(=O)[nH]1 (racemic) [Example 130] | 99 | 1 to 100 |
| O=c1[nH]c(Cc2ccc(F)c(Cl)c2)nc2c1cnn2C1CCOC1 (racemic) [Example 71] | 99 | 1 to 100 |
| COc1cccnc1Cc1nc2c(cnn2C2CCCOC2)c(=O)[nH]1 (racemic) [Example 122] | 85 | 101 to 1200 |
| O=C(c1ccccc1)N1CCCC(n2ncc3c(=O)[nH]c(Cc4ccccc4)nc32)C1 (racemic) [Example 182] | 100 | 1 to 100 |

The next lines start with the values.

| inhibition at 10 µM [%] | IC50 [nM] | Structure (SMILES) |
| --- | --- | --- |
| 99 | 1 to 100 | CC(C)(C)OC(=O)N1CCCC(n2ncc3c(=O)[nH]c(Cc4ccccc4)nc32)C1 (racemic) [Example 18] |
| 100 | 1 to 100 | O=c1[nH]c(Cc2ccccc2O[C@@H]2CCOC2)nc2c1cnn2C1CCOCC1 [Example 57] |
| 100 | 1 to 100 | O=C(Oc1ccc(F)cc1)N1CCCC(n2ncc3c(=O)[nH]c(Cc4ccccc4)nc32)C1 (racemic) [Example 185] |
| 97 | 1 to 100 | O=c1[nH]c(Cc2cc(OC(F)(F)F)ccc2F)nc2c1cnn2C1CCOCC1 [Example 50] |
| 98 | 1 to 100 | CCC(C)Cc1nc2c(cnn2C2CCOCC2)c(=O)[nH]1 (racemic) [Example 135] |
| 99 | 1 to 100 | O=c1[nH]c(Cc2cc(Cl)cc(Cl)c2)nc2c1cnn2C1CCOCC1 [Example 38] |
| 99 | 1 to 100 | O=c1[nH]c(CC2CCCC2)nc2c1cnn2C1CCCCO1 (racemic) [Example 147] |
| 100 | 1 to 100 | CC(C)Cc1nc2c(cnn2C2CCOCC2)c(=O)[nH]1 [Example 143] |
| 100 | 1 to 100 | O=c1[nH]c(CCC2CCC2)nc2c1cnn2C1CCOCC1 [Example 40-1] |
| 97 | 1 to 100 | O=c1[nH]c(Cc2ccccc2OC2CCOCC2)nc2c1cnn2C1CCOCC1 [Example 60] |
| 100 | 1 to 100 | CN1CCC(n2ncc3c(=O)[nH]c(CC4CCCC4)nc32)C1 (racemic) [Example 207] |
| 96 | 1 to 100 | O=c1[nH]c(CC2CC2)nc2c1cnn2C1CCCOC1 (racemic) [Example 99] |
| 100 | 1 to 100 | COC(=O)N1CCCC(n2ncc3c(=O)[nH]c(Cc4ccccc4)nc32)C1 (racemic) [Example 155] |
| 99 | 1 to 100 | O=c1[nH]c(Cc2ccccc2Br)nc2c1cnn2C1CCOCC1 [Example 5] |
| 99 | 1 to 100 | O=c1[nH]c(CC2CCC2)nc2c1cnn2C1CCCOC1 (racemic) [Example 96] |
| 99 | 1 to 100 | O=c1[nH]c(Cc2cccc(Cl)c2)nc2c1cnn2C1CCOCC1 [Example 39] |
| 100 | 1 to 100 | Cc1cc(C)cc(Cc2nc3c(cnn3C3CCOCC3)c(=O)[nH]2)c1 [Example 36] |
| 97 | 1 to 100 | CCC(Cc1nc2c(cnn2C2CCOCC2)c(=O)[nH]1)C(F)(F)F (single isomer, unassigned) [Example 61] |
| 99 | 1 to 100 | CN1CCC(n2ncc3c(=O)[nH]c(Cc4ccccc4OC(F)(F)F)nc32)C1 (racemic) [Example 211] |
| 98 | 1 to 100 | CCC(CC)Cc1nc2c(cnn2C2CCOC2)c(=O)[nH]1 (racemic) [Example 76] |
| 100 | 1 to 100 | O=c1[nH]c(Cc2ccccc2OC(F)(F)F)nc2c1cnn2C1CCOCC1 [Example 138] |
| 97 | 1 to 100 | CC(=O)N1CCCC(n2ncc3c(=O)[nH]c(Cc4cccc(C(F)(F)F)c4)nc32)C1 (racemic) [Example 184] |
| 100 | 1 to 100 | COC(=O)N1CCCC(n2ncc3c(=O)[nH]c(CC4CCCC4)nc32)C1 (racemic) [Example 154] |
| 95 | 1 to 100 | Cc1cccnc1Cc1nc2c(cnn2C2CCOCC2)c(=O)[nH]1 [Example 56] |
| 98 | 1 to 100 | COc1ccccc1Cc1nc2c(cnn2C2CCOCC2)c(=O)[nH]1 [Example 49] |
| 100 | 1 to 100 | O=C1CC(n2ncc3c(=O)[nH]c(CC4CCCC4)nc32)CCO1 (stereo not shown) [Example 233] |
| 100 | 1 to 100 | O=c1[nH]c(Cc2ccc(F)cc2)nc2c1cnn2C1CCOCC1 [Example 140] |
| 100 | 1 to 100 | CC(=O)N1CCC(n2ncc3c(=O)[nH]c(Cc4ccccc4)nc32)C1 (racemic) [Example 172] |
| 95 | 1 to 100 | CC1CC(n2ncc3c(=O)[nH]c(CC4CCC4)nc32)CCO1 (racemic) [Example 120] |
| 97 | 1 to 100 | O=c1[nH]c(Cc2c(F)ccc(F)c2Cl)nc2c1cnn2C1CCOCC1 [Example 37] |

— patent US8623879B2, “1-heterocyclyl-1,5-dihydro-pyrazolo[3,4-D] pyrimidin-4-one derivates and their use as PDE9A modulators” (Boehringer Ingelheim International GmbH, priority 2008, dated 2014)
